The numbers were not newly measured in patent US7655259B2, “Delayed release carnitine” (SIGMA-TAU Industrie Farmaceutiche Riunite S.p.A, priority 1993, dated 2010), which cites them from elsewhere.

For series [1] the following is noted: given orally, carnitine deficient patients.
The conditions of series [2]: in the human.

For the compound `C[N+](C)(C)CCCC(=O)[O-]` [GBB, Gamma-butyrobetaine], the “conversion to L-carnitine” value in series [1] is recorded as “readily converted to L-carnitine”.
For the compound `C[N+](C)(C)CC(O)CC(=O)[O-]` [L-carnitine, 3-hydroxy-4-(trimethylamino-)butyrate], the half-life entry in series [2] was “approximately 30 minutes”.
